Literature values as cited in patent US6645913B2, “Adjuvant composition” (Cognis Corporation, priority 1999, dated 2003).

Conditions: glyphosate in acid form

**Q.** Which water solubility does the source give for `O=C(O)CNCP(=O)(O)O` [glyphosate, N-phosphonomethylglycine] here?
**A.** about 1.2%
